Source: US8686059B2, “Base and radical generator, composition using same and method for curing same” (Three Bond Co., Ltd., priority 2009, dated 2014)

Experiments:
[1] = Confirmation of photobase generation: pH of aqueous solution before and after 365-nm irradiation; assay type: physicochemical; details: 1.00 g/L aqueous solution
Protocol: An aqueous solution having a concentration of 1.00 g/L was prepared from the aminimide compound A and pure water, and 50 ml of this was put into a transparent glass-made sample bottle having an inner diameter of 38 mm and a height of 58 mm, and with stirring with a stirrer while sealed up, the pH of the aqueous solution was measured with a pH meter, Horiba Seisakusho's D54. Further kept sealed up, the sample bottle was irradiated with 365-nm active energy rays on the side thereof at a lighting intensity of 100 mW/cm^2, using a spot UV irradiator, Hamamatsu Photonics' LC8, and the pH of the solution was measured after irradiation for specified seconds. The pH before irradiation with active energy rays was 6.28; and the pH after irradiation with active energy rays for 20 seconds was 9.78; the pH after irradiation for 30 seconds was 9.90; and the pH after irradiation for 50 seconds was 10.01.

Compound	melting point	pH before irradiation with active energy rays [1]	pH after irradiation with active energy rays for 20 seconds ([1]; 365 nm, 100 mW/cm^2, 20 seconds)	pH after irradiation for 30 seconds ([1]; 365 nm, 100 mW/cm^2, 30 seconds)	pH after irradiation for 50 seconds ([1]; 365 nm, 100 mW/cm^2, 50 seconds)
COc1ccc(C(=O)C(=O)[N-][N+](C)(C)CC(C)O)cc1 (stereo not drawn) [Aminimide Compound B]	102 to 103 °C (dec.)				
CC(O)C[N+](C)(C)[N-]C(=O)C(=O)c1ccccc1 (stereo not drawn) [Aminimide Compound A]		6.28	9.78	9.90	10.01
CC(=O)OC(C)C[N+](C)(C)[N-]C(=O)C(=O)c1ccccc1 (stereo not drawn) [Aminimide Compound D]	100 to 101 °C (dec.)				
